According to ChEMBL document CHEMBL5131467, “Multivalent peptide dendrimers inhibit the fusion of viral-cellular membranes and the cellular NF-κB signaling pathway” (Eur J Med Chem, 2022):
Activity calls are given as the source filed them. The rule behind the calls is not given here. Where a SMILES comes first, the peptide text is derived from it. Bridges are numbered along the chain shown (N, C = ends). Roman numbers before positions name the chains, in order. Side-chain parts run from the residue outwards. The star is where a group is joined. Fmoc = O=C(OCC1c2ccccc2-c2ccccc21)*

Legend:
Hemagglutinin = Hemagglutinin (Influenza A virus, UniProt B4URE7); assay: Binding affinity to Influenza A Puerto Rico/8/1934/H1N1 hemagglutin assessed as dissociation constant by surface plasmon resonance assay
Hemagglutinin, sequence (B4URE7 whole entry): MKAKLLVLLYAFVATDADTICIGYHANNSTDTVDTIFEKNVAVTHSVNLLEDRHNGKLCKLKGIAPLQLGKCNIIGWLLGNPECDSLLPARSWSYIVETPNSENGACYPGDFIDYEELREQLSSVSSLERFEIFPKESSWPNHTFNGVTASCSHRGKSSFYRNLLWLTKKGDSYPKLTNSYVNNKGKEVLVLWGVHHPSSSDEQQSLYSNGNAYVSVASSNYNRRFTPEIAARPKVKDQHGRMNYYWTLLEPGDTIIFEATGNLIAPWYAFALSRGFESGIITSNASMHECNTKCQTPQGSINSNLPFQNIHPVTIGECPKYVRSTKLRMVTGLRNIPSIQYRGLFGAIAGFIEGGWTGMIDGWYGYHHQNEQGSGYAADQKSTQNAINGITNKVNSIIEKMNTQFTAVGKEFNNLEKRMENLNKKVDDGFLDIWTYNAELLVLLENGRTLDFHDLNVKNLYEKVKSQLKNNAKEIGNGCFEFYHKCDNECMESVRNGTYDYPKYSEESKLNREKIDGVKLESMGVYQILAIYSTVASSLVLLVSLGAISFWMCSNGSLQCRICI

RAW264.7 [1] = assay: Anti-inflammatory activity against mouse RAW264.7 cells assessed as reduction in LPS induced TNF alpha level at 5 ug/ml by ELISA method; type: functional; conditions: dose 5 µg/ml
RAW264.7 [2] = assay: Cytotoxicity against mouse RAW264.7 cells assessed as cell viability at lesser than 100 ug/ml by CCK-8 assay; type: toxicity, cell-based; conditions: dose < 100 µg/ml
[3] = Cmax in Kunming mouse at 10 mg/kg, ip by HPLC analysis; type: ADME, organism-based; design: dose 10 mg/kg, route ip; conditions: in vivo
Mus musculus [4] = assay: Antiviral activity against Kunming mouse infected with Influenza A virus (A/Puerto Rico/8/1934(H1N1)) assessed as recovery in body weight at 5 mg/kg, ip administered twice a day with a time interval of 12 hrs for 4 days measured from day 8 upto 15 days (Rvb =18.02 g); type: functional; conditions: time 15 day
Influenza A virus [5] = assay: Antiviral activity against Influenza A virus (A/Puerto Rico/8/1934(H1N1)) infected in MDCK cells assessed as reduction in viral nucleoprotein expression level at 2 ug/ml pre-treated with virus measured after 24 hrs post infection by indirect immunofluorescence assay; type: functional, organism-based; conditions: dose 2.0 µg/ml
Influenza A virus [6] = assay: Antiviral activity against Influenza A virus A/FM/1/47 infected in MDCK cells incubated for 1 hr by MTT assay; type: functional, organism-based; conditions: A/FM/1/47, MDCK
Influenza A virus [7] = assay: Antiviral activity against Influenza A virus A/Aichi/2/68(H3N2) infected in MDCK cells incubated for 1 hr by MTT assay; type: functional, organism-based
Influenza A virus [8] = assay: Antiviral activity against influenza A/Thailand/Kan353/2004 infected in MDCK cells assessed as inhibition of syncytium formation at 5 ug/ml incubated for 3 hrs by giemsa staining based assay relative to control; type: functional; design: scale not given: the % may be the effect or the level left; conditions: dose 5 µg/ml
Influenza A virus [9] = assay: Antiviral activity against Influenza A virus (A/Puerto Rico/8/1934(H1N1)) infected in MDCK cells assessed as reduction in virus induced cytopathic effect after infection incubated for 1 hr by MTT assay; type: functional, organism-based
RAW264.7 [10] = assay: Anti-inflammatory activity against Influenza A virus (A/Puerto Rico/8/1934(H1N1)) s induced mouse RAW264.7 cells assessed as suppression of NF kappa B expression level 1.5 ug/ml by luciferase reporter assay; type: functional, cell-based; conditions: dose 1.5 µg/ml
Influenza A virus [11] = assay: Antiviral activity against influenza A/Thailand/Kan353/2004 infected in MDCK cells assessed as inhibition of syncytium formation at 2.5 ug/ml incubated for 3 hrs by giemsa staining based assay relative to control; type: functional; design: scale not given: the % may be the effect or the level left; conditions: dose 2.5 µg/ml
RAW264.7 [12] = assay: Anti-inflammatory activity against mouse RAW264.7 cells assessed as reduction in LPS induced IL-1 beta level at 1 ug/ml by qRT-PCR analysis; type: functional, cell-based; conditions: dose 1.0 µg/ml
[13] = Tmax in Kunming mouse at 10 mg/kg, ip by HPLC analysis; type: ADME, organism-based; conditions: in vivo
Mus musculus [14] = assay: Antiviral activity against Kunming mouse infected with Influenza A virus (A/Puerto Rico/8/1934(H1N1)) assessed as increase in body weight at 5 mg/kg, ip measured after 15 days (reference value: 178.7%); type: functional; conditions: time 15 day

SMILES: NCCCC[C@H](NC(=O)OCC1c2ccccc2-c2ccccc21)C(=O)N[C@@H](CCCCN)C(=O)N[C@@H](Cc1c[nH]c2ccccc12)C(=O)N[C@@H](CCCCN)C(=O)NCCCC[C@H](NC(=O)[C@H](CCCCN)NC(=O)[C@H](Cc1c[nH]c2ccccc12)NC(=O)[C@H](CCCCN)NC(=O)[C@H](CCCCN)NC(=O)OCC1c2ccccc2-c2ccccc21)C(=O)NCCCC[C@H](NC(=O)[C@H](CCCCNC(=O)[C@H](CCCCN)NC(=O)[C@H](Cc1c[nH]c2ccccc12)NC(=O)[C@H](CCCCN)NC(=O)[C@H](CCCCN)NC(=O)OCC1c2ccccc2-c2ccccc21)NC(=O)[C@H](CCCCN)NC(=O)[C@H](Cc1c[nH]c2ccccc12)NC(=O)[C@H](CCCCN)NC(=O)[C@H](CCCCN)NC(=O)OCC1c2ccccc2-c2ccccc21)C(=O)NCC(=O)O (I: Fmoc-KKWKK([Lys-Trp-Lys-Lys-Fmoc])KG-OH / II: Fmoc-KKWKK([Lys-Trp-Lys-Lys-Fmoc]); amide I:6-II:C)
- Kd (Hemagglutinin): 0.00665 nM
- Activity (RAW264.7 [1]): 280.5 pg/mL
- Activity (RAW264.7 [2]): Non-Toxic
- Cmax [3]: 5020 ng/mL
- Activity (Mus musculus [4]): 26.99 g
- Activity (Influenza A virus [5]): Active
- IC50 (Influenza A virus [6]): 170 nM
- IC50 (Influenza A virus [7]): 240 nM
- Activity (Influenza A virus [8]): 90%
- IC50 (Influenza A virus [9]): 11600 nM
- Activity (RAW264.7 [10]): Active
- Activity (Influenza A virus [11]): 63%
- Activity (RAW264.7 [12]): Active
- Tmax [13]: 1.03 h
- Activity (Mus musculus [14]): 129.4%
